{
  "source": "patent US8679499B2",
  "about": "“Methods for relieving asthma-associated airway hyperresponsiveness” (The Board of Trustees of the Leland Stanford Junior …, priority 2004, dated 2014)",
  "key": {"NKT cells [1]": {"test_system": "NKT cells", "test": "Serum IFN-γ and IL-4 (ELISA) after i.p. glycolipid injection; NKT cell activation in vivo", "design": "species or system C57BL/6 mice", "conditions": "6 hours", "procedure": "The i.p. injection of a galactosyl ceramide (obtained from Brigham Young University, Provo, Utah) into C57BL/6 mice increases serum levels of IL-4 and IFN-γ by selectively activating NKT cells. Injection of C12 β galactosyl ceramide (Avanti Lipids, Inc.) i.p. antagonizes the ability of α galactosyl ceramide to raise the levels of IL-4, interferon-gamma, and IgE in the serum of these mice.\nMale C57BL/6 mice of about 8 weeks of age were given either 100 μg of β galactosyl ceramide (β Galcer) i.p., 0.1 μg of α galactosyl ceramide (α Galcer) i.p., 100 μg β Galcer i.p. either 1 hour before or at the same time as 0.1 μg α Galcer i.p., or no treatment. β-Galcer was obtained from Avanti Lipids Inc. Glycolipids were in aqueous solutions with PBS. Cytokine levels were determined by ELISA as previously described by Zeng et al. (2003), supra."}, "NKT cells [2]": {"test_system": "NKT cells", "test": "Serum IgE and IgG2c before and 10 days after a single i.p. glycolipid injection", "type": "in vivo, C57BL/6 mice", "procedure": "In a separate experiment, mean serum IgE levels of groups of three C57BL/6 mice were measured before or 10 days after a single i.p. injection of 0.1 μg α Galcer alone, 100 μg β Galcer alone, or 100 μg of β Galcer injected 1 hour before 0.1 μg α Galcer. […] The bars show means of triplicate determinations, and the brackets show standard deviations. […] We conclude that β Galcer blocks the increase in serum IgE levels induced by α Galcer. No significant change is seen with the control IgG2c expression."}, "[3]": {"test_system": "mice with α-GalCer induced airway hyperresponsiveness (AHR)", "test": "α-GalCer induced airway hyperresponsiveness (AHR), methacholine whole body plethysmograph", "type": "in vivo, BALB/c mice", "procedure": "(§1) In murine model of asthma, β-GalCer was administered to OVA-immunized BALB/c mice, or mice with α-GalCer induced airway hyperresponsiveness (AHR).\n(§2) Immunizations. BALB/c mice were primed in the footpads with OVA (100 μg/mouse) adsorbed to 200 μg of alum (Al[OH]3). Mice were challenged with 50 μg OVA in 50 μl NaCl 0.9% intranasally 7, 8, and 9 days later. One day after the last intranasal challenge with OVA, airway hyperreactivity was measured from conscious mice after inhalation of increasing concentrations of methacholine in a whole body plethysmograph Immunization with α-GalCer was performed as described.\n(§3) Measurement of Airway Responsiveness. Airway responsiveness was assessed by methacholine-induced airflow obstruction from conscious mice placed in a whole body plethysmograph (model PLY 3211, Buxco Electronics Inc., Troy, N.Y.). Pulmonary airflow obstruction was measured by Penh using the following formula:\n(§4) [formula] where Penh=enhanced pause (dimensionless), Te=expiratory time, RT=relaxation time, PEF=peak expiratory flow (mI/s), and PIF=peak inspiratory flow (mI/s) (Hamelmann et al. (1997) Am. J. Respir. Crit. Care Med. 156:766-75. Enhanced pause (Penh), minute volume, tidal volume, and breathing frequency were obtained from chamber, pressure, measured with a transducer (model TRD5100) connected to preamplifier modules (model MAX2270) and analyzed by system XA software (model SFT 1810). Measurements of methacholine responsiveness were obtained by exposing mice for 2 min to NaCI 0.9%\n(§5) Collection of BAL Fluid and Lung Histology. Animals were injected i.p. with a lethal dose of phenobarbital (450 mg/kg). The trachea was cannulated, and the lung was then lavaged with 0.8 ml of PBS three times, and the fluid pooled. Cells in the lavage fluid were counted using a hemocytometer and BAL cell differentials were determined on slide preparations stained with Hansel Stain (Lide Laboratories, Florissant, Mo.). At least 200 cells were differentiated by light microscopy based on conventional morphologic criteria. In some animals, no BAL was performed but lungs were removed, washed with PBS, fixed in 10% formalin and stained with hematoxylin and eosin.\nA minimum of 4 mice per group were used."}, "[4]": {"test_system": "OVA-immunized BALB/c mice", "test": "OVA/alum induced AHR, murine model of asthma", "type": "in vivo", "procedure": "as §1, §2\nCytokine ELISA. ELISAS were performed as previously described Macaulay et al. (1998) J. Immunol. 160:1694-1700. The antibody pairs used were as follows, listed by capture/biotinylated detection: IL-4, BVD4-1D11/BVD6-24G2; IFN-γ, R4-6A2/XMG1.2. Recombinant cytokine were used as standards, with curves generated in 1:2 dilutions from […] to 39 pg/ml for IL-4, and 20-2, 156 ng/ml for IFN-γ.\nMeasurement of anti-OVA antibody isotypes. Mice were bled at the time of sacrifice and OVA-specific antibody was measured using a modified antigen-specific ELISA. For measurement of OVA specific IgG, plates were coated overnight with 5 μg/ml OVA. After washing and blocking, serial diluted sera were added to the plates. Following overnight incubation, the plates were developed using HRPO-conjugated goat anti-IgG subclass-specific antibodies (Southern Biotechnology Associates, Birmingham, Ala.). After additional washing, OPD substrate was added, the plates developed and the OD determined at 492 nm Anti-OVA IgG1 mAb 6C1 and anti-OVA IgG2a mAb 3A11 were used as standards for quantitation of each IgG subclass. Determination of OVA-specific IgE was performed by ELISA, using rat anti-mouse IgE mAb EM95 (5.0 μg/ml) to coat plates. After the samples were applied and incubated overnight, plates were washed and biotinylated OVA (10 μg/ml) was added. Two hours later, plates were washed and HRPO-conjugated streptavidin (Southern Biotechnology Associates) was added. Plates were developed with OPD substrate and the OD determined at 492 nm Sera from mice hyperimmunized with OVA in alum was quantitated for IgE and used as standard for the OVA-specific IgE ELISA.\nas §3, §4, §5\n(a) AHR was measured on day 10. C12-β-GalCer was administered i.v. (100 μg) 1 day prior to OVA/alum sensitization and 6 hours prior to each i.n. challenge (100 μg). […]"}, "NKT cells [5]": {"test_system": "NKT cells", "test": "Oral administration of β-galactosyl ceramide: serum cytokines and liver NKT cell markers", "type": "in vivo, mouse", "procedure": "Doses of β-galactosyl ceramide ranging from 100-800 μg/mouse were administered orally. Cytokine levels of IFN-γ and IL-4 were determined by ELISA as previously described by Zeng et al. (2003), supra. from serum levels."}, "NZBxNZW mouse": {"test_system": "NZBxNZW mouse", "test": "Murine model for systemic lupus erythematosus, proteinuria", "type": "in vivo", "conditions": "high dose (100 μg/mouse) injected twice weekly, at 38 weeks; PBS control approximately 30%", "procedure": "In a murine model for systemic lupus erythematosus, the NZBxNZW mouse, animals were injected twice weekly with one of: PBS, 50 μg/mouse β-galactosyl ceramide, or 100 μg/mouse β-galactosyl ceramide. The animals were analyzed for proteinuria, which is an indication of the development of lupus. In the control group of 15 mice, at 38 weeks, approximately 30% of the mice were without proteinuria, while approximately 80% of the mice treated with the high dose of β-galactosyl ceramide were without proteinuria."}, "[6]": {"conditions": "glycolipid alone i.p. (100 μg β Galcer or 0.1 μg α Galcer), untreated about 50 pg/ml"}, "[7]": {"conditions": "C12-β-GalCer treated group versus OVA/alum positive control"}, "[8]": {"conditions": "C12-β-GalCer treated group, four days in culture with 62.5 μg/ml OVA"}},
  "note": "“Also recorded” adds a separate entry of the source.",
  "data": [
    {"smiles": "CCCCCCCCCCCCCCCCCCCCCCCCCC(=O)N[C@@H](CO[C@H]1O[C@H](CO)[C@H](O)[C@H](O)[C@H]1O)[C@H](O)[C@H](O)CCCCCCCCCCCCCC", "note": "[α Galcer, α galactosyl ceramide, reference compound]", "values": [
      {"measurement": "serum IL-4 level", "setting": "NKT cells [1]; 0.1 μg α Galcer alone i.p.", "value": 1000, "unit": "pg/mL"},
      {"measurement": "increase of serum IL-4 level", "setting": "NKT cells [1]; 0.1 μg α Galcer alone i.p., versus untreated", "value": "about 10 fold"},
      {"measurement": "serum IFN-γ level", "setting": "NKT cells [1]; [6]", "value": "increased the level more than two fold"},
      {"measurement": "rise of serum IgE level", "setting": "NKT cells [2]; 0.1 μg α Galcer alone i.p., 10 days after versus before", "value": "about three fold"}
    ]},
    {"smiles": "CCCCCCCCCCCCC/C=C/[C@@H](O)[C@H](CO[C@@H]1O[C@H](CO)[C@H](O)[C@H](O)[C@H]1O)NC(=O)CCCCCCCCCCC", "note": "[β Galcer, C12 β galactosyl ceramide]", "values": [
      {"measurement": "serum IL-4 level", "setting": "NKT cells [1]; 100 μg β Galcer alone i.p., untreated about 100 pg/ml", "value": "did not increase the level"},
      {"measurement": "serum IL-4 level", "setting": "NKT cells [1]; 100 μg β Galcer and 0.1 μg α Galcer given at the same time", "value": "about 250 pg/ml"},
      {"measurement": "serum IFN-γ level", "setting": "NKT cells [1]; 100 μg β Galcer i.p. 1 hour before 0.1 μg α Galcer i.p.", "value": "below 40 pg/ml"},
      {"measurement": "serum IFN-γ level", "setting": "NKT cells [1]; 100 μg β Galcer i.p. at the same time as 0.1 μg α Galcer i.p.", "value": "below 40 pg/ml"},
      {"measurement": "increase of serum IL-4 induced by α Galcer", "setting": "NKT cells [1]; 100 μg β Galcer one hour before 0.1 μg α Galcer", "value": "completely blocked"},
      {"measurement": "serum IFN-γ level", "setting": "NKT cells [1]; [6]", "value": "did not increase the level"},
      {"measurement": "synthesis of IgG2c (control)", "setting": "NKT cells [2]; treatment with β-Galcer, FIG. 1D", "value": "not affected"},
      {"measurement": "AHR", "setting": "[3]; 50 μg i.n. and i.v. 2 hours prior to 0.5 μg α-GalCer i.n., 24 hours AHR", "value": "greatly reduces 24 hours AHR"},
      {"measurement": "AHR", "setting": "[3]; 100 μg C12-β-GalCer i.v. 2 hours prior to 1.5 μg α-GalCer i.n., AHR at 24 hours", "value": "greatly reduces AHR; also recorded: blocks α-GalCer induced AHR"},
      {"measurement": "AHR induced by the agent itself", "setting": "[3]; C12-β-GalCer administered i.n.", "value": "induces mild AHR"},
      {"measurement": "AHR induced by the agent itself", "setting": "[3]; C12-β-GalCer i.v. alone", "value": "does not induce any AHR"},
      {"measurement": "peri-bronchiolar eosinophilic inflammation (histology)", "setting": "[3]; C12-β-GalCer treatment", "value": "reduced peri-bronchiolar eosinophilic inflammation"},
      {"measurement": "serum IFN-γ", "setting": "[3]; following α-GalCer induced AHR", "value": "more serum IFN-γ"},
      {"measurement": "lung inflammation (histology)", "setting": "[3]; i.v. injection of C12-β-GalCer by itself", "value": "does not result in any lung inflammation"},
      {"measurement": "AHR", "setting": "[4]; C12-β-GalCer 100 μg i.v. 1 day prior to OVA/alum sensitization and 6 hours prior to each i.n. challenge, AHR day 10", "value": "reduce AHR; also recorded: reduces OVA/alum induced AHR"},
      {"measurement": "eosinophilic infiltration of the lungs (histology)", "setting": "[4]; [7]", "value": "reduced but present"},
      {"measurement": "neutrophilia in the lungs (histology)", "setting": "[4]; [7]", "value": "possibly more neutrophilia"},
      {"measurement": "serum OVA-specific IgE", "setting": "[4]; C12-β-GalCer treated group, 100 μg i.v.", "value": "reduced"},
      {"measurement": "IFN-γ produced by lymph node cells", "setting": "[4]; [8]", "value": "slightly more IFN-γ"},
      {"measurement": "IL-4 produced by lymph node cells", "setting": "[4]; [8]", "value": "less IL-4"},
      {"measurement": "staining for NKT cell markers in the liver", "setting": "NKT cells [5]; oral administration, FIG. 5", "value": "decreased staining for NKT cell markers in the liver"},
      {"measurement": "serum IL-4 level", "setting": "NKT cells [5]; oral, 100-800 μg/mouse", "value": "A similar pattern was observed"},
      {"measurement": "serum IFN-γ level", "setting": "NKT cells [5]; oral, 100-800 μg/mouse, 24 hours after administration", "value": "no increase in serum levels at any dose"},
      {"measurement": "mice without proteinuria", "setting": "NZBxNZW mouse", "value": "approximately 80%"}
    ]}
  ]
}
